# From patent US9382203B2, “N-carbamoylmethyl-4-(R)-phenyl-2-pyrrolidinone, method of its preparation and pharmaceutical use” (Joint Stock Company (JSC) “OLAINFARM”, priority 2006, dated 2016)
# Marks after values point to notes of the source that are not given here.
# Legend:
# Type in all cases: in vivo
# male ICR mice [1] = assay: Porsolt forced swim test (FST); details: for Immobility in FST (in words): after preliminary treatment, mice; for Immobilization time: i.p. 100 mg/kg, 1 hour before the test, male ICR mice
# male ICR mice [2] = assay: Open field test, locomotor activity; details: for Exploratory activity counts / Vertical activity counts / Horizontal activity counts: male ICR mice
# male ICR mice [3] = assay: Muscle relaxant activity, chimney test; details: Mus musculus, ip; i.p. administration in dosages 50; 100; 250 and 500 mg/kg
# male ICR mice [4] = assay: Muscle relaxant activity, traction test; details: Mus musculus, ip; i.p. administration in dosages 50; 100; 250 and 500 mg/kg
# male ICR mice [5] = assay: Muscle relaxant activity, rota rod test; details: Mus musculus, ip; i.p. administration in dosages 50; 100; 250 and 500 mg/kg
# male ICR mice [6] = assay: Analgesic effect, hot plate test; details: Mus musculus, ip; i.p. administration in dosages 50; 100; 250 and 500 mg/kg
SMILES,Immobility in FST (in words) (male ICR mice [1]),Immobilization time (male ICR mice [1]),Exploratory activity counts (male ICR mice [2]; 30 min after i.p. 50 mg/kg),Vertical activity counts (male ICR mice [2]; 30 min after i.p. 50 mg/kg),Exploratory activity counts (male ICR mice [2]; 60 min after i.p. 50 mg/kg),Vertical activity counts (male ICR mice [2]; 60 min after i.p. 50 mg/kg),Exploratory activity counts (male ICR mice [2]; 120 min after i.p. 50 mg/kg),Vertical activity counts (male ICR mice [2]; 120 min after i.p. 50 mg/kg),Activity at the end of the 120 min observation period relative to S-Carphedon (male ICR mice [2]; i.p. 50 mg/kg),"Animal activity in open field test (in words) (male ICR mice [2]; i.p. 50 mg/kg, 120 min observation period)",ED50 (male ICR mice [3]),ED50 (male ICR mice [4]),ED50 (male ICR mice [5]),ED50 (male ICR mice [6]),Horizontal activity counts (male ICR mice [2]; 30 min after i.p. 50 mg/kg),Horizontal activity counts (male ICR mice [2]; 120 min after i.p. 50 mg/kg)
"NC(=O)CN1C[C@@H](c2ccccc2)CC1=O [R-Carphedon, N-Carbamoylmethyl-4(R)-phenyl-2-pyrrolidinone]",did not spent any time immobile,0^## sec,15.5 ± 2.9 counts,10.0 ± 1.5 counts,16.4 ± 3.6 counts,12.5 ± 3.2 counts,17.8 ± 4.7 counts,11.6 ± 4.0 counts,about two times higher,prolonged and stable increase in animal activity,199 ± 38 mg/kg,456 ± 122 mg/kg,193 ± 26 mg/kg,10 ± 42 mg/kg,–,–
"NC(=O)CN1C[C@H](c2ccccc2)CC1=O [S-Carphedon, N-Carbamoylmethyl-4(S)-phenyl-2-pyrrolidinone]",immobilization in response to stress factor,110 ± 12 s,–,7.0 ± 1.6 counts,7.8 ± 4.2 counts,7.0 ± 2.8 counts,11.5 ± 2.8 counts,4.9 ± 1.7 counts,–,–,286 ± 78 mg/kg,548 ± 75 mg/kg,459 ± 87 mg/kg,50 ± 63 mg/kg,56.3 ± 5.7 counts,36.4 ± 7.1 counts
